The source of these data is patent US7601713B2, “Kinase inhibitors and their uses” (Rigel Pharmaceuticals, Inc., priority 2005, dated 2009).

One test addresses kinase Lyn b (Homo sapiens, UniProt P07948). Description: Lyn b kinase inhibition. In kind it is biochemical.
Test [1] relates to JAK kinases (JAK1 and JAK3). Description: JAK inhibition: IL-4-stimulated CD23 upregulation in human Ramos B-cells, FACS. The settings on record: IL-4 stimulated Ramos B-cells, read-out: IC50, inhibition of JAK kinases in cellular assay. The format is cell-based. The method in brief:
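Ramos B-cells in RPMI with 5% FBS were pre-incubated with compound for 1 h at 37 °C, then stimulated with IL-4 (50 U/ml final) for 20–24 h. CD23 upregulation was measured by anti-CD23-PE staining and FACS.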

For the next test, the target named is Lck kinase (Homo sapiens, UniProt P06239). Description: Lck kinase inhibition. The format is biochemical.
The target in another test is Syk kinase (Homo sapiens, UniProt P43405). Description: cell-based Syk assay. Conditions: read-out: IC50, inhibition of Syk kinase.
The target in the next test is T1, Axl kinase (Homo sapiens, UniProt P30530).
T1 construct: endogenous in cells; host or cells: HeLa cells
T1 sequence (P30530 26-894): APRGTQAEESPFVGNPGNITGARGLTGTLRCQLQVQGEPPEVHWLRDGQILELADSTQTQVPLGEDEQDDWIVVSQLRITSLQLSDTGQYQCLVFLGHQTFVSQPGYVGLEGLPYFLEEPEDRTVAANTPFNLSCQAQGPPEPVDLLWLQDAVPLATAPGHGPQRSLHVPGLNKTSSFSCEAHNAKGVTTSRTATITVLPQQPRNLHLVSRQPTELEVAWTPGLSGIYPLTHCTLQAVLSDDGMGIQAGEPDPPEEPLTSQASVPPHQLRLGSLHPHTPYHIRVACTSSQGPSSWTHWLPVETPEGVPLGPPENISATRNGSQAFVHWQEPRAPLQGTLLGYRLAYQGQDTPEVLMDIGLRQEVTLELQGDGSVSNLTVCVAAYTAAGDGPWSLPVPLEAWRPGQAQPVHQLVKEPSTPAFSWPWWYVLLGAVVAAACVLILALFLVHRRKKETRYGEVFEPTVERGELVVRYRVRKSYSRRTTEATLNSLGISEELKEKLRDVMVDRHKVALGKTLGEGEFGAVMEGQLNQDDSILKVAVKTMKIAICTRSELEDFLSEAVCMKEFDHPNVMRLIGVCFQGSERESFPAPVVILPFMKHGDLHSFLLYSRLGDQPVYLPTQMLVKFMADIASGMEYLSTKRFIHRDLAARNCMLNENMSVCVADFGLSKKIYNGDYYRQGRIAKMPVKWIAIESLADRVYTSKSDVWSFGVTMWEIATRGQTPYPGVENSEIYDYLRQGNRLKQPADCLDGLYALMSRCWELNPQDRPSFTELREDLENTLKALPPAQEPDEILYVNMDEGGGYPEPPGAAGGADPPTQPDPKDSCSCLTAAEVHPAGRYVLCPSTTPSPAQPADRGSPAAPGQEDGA
Description: Phospho-Akt in-cell Western assay (Axl antibody cross-linking, Hela cells). In kind it is cell-based. The settings on record: phospho-Akt readout, read-out: IC50, inhibition of Axl kinase. The method in brief: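 HeLa cells were starved 24 h in 0.5% FCS with 500 ng/mL Axl/Fc, pretreated with compound 1 h at 37 °C, then stimulated 5 min by cross-linked anti-Axl antibodies. Phospho-Akt was detected by in-cell chemiluminescent immunoassay and normalized to crystal violet cell number at 590 nm.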

The target in a further test is PRK1 kinase (Homo sapiens, UniProt Q16512). Kind of test: PRK1 kinase inhibition. In kind it is biochemical.
The next test concerns tumor cell lines. The settings on record: in vitro assays, variety of tumor cell lines, cited from earlier work.
The next test relates to Aurora kinases. The settings on record: cited from earlier work.

pIC50: −log10 of the molar value. Read-outs that look alike come from different tables or passages of the source. Where only a bound is given, the exact number is not on record here.

Lck kinase, sequence (P06239 whole entry): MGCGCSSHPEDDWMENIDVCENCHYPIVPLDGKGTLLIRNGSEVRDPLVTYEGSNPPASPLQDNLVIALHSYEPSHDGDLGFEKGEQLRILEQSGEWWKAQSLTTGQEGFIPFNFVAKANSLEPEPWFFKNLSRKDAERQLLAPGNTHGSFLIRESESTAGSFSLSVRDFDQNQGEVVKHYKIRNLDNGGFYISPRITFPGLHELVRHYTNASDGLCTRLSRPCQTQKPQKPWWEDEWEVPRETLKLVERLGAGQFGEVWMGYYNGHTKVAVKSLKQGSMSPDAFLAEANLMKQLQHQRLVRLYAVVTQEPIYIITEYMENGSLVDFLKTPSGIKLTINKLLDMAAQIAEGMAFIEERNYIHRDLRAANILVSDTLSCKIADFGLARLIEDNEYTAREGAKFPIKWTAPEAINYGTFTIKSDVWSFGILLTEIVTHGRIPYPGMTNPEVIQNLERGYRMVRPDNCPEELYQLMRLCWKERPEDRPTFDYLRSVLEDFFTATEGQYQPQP
kinase Lyn b, sequence (P07948 1-491 isoform P07948-2): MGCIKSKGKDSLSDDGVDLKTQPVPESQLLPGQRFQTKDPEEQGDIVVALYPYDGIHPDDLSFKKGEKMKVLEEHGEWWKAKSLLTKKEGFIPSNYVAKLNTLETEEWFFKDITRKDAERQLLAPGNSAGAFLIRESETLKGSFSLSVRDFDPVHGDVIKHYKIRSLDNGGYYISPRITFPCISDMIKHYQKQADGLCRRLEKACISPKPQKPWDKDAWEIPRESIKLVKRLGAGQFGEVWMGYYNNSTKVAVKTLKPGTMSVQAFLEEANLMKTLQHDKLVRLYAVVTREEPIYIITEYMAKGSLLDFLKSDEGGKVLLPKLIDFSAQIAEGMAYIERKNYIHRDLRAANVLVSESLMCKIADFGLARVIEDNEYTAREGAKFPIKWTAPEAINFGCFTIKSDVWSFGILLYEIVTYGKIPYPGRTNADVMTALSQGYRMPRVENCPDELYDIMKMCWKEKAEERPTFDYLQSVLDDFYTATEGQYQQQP
PRK1 kinase, sequence (Q16512 whole entry): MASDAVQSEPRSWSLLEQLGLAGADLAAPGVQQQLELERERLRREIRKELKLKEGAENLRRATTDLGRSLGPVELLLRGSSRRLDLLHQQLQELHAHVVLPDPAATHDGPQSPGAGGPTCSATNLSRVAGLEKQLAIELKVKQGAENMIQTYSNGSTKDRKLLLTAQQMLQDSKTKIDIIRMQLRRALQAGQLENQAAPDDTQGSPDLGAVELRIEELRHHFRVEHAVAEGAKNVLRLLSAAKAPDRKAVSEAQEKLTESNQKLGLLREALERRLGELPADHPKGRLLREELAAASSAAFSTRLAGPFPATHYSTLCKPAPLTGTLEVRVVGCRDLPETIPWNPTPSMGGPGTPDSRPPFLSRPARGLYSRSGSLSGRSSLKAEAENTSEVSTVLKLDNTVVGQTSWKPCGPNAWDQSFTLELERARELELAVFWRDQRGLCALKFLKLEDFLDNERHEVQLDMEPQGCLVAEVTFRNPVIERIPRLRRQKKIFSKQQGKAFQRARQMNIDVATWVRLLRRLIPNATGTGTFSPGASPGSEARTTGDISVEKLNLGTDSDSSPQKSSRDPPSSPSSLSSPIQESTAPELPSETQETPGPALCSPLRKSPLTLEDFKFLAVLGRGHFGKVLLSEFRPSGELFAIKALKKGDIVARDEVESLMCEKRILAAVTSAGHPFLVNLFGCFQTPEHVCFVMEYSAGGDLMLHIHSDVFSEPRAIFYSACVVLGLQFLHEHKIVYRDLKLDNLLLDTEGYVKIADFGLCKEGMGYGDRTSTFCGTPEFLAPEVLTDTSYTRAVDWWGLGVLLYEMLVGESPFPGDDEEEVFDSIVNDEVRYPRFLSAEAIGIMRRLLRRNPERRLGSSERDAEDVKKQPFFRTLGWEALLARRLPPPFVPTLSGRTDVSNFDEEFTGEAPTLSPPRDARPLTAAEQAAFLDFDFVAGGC

As a reminder, the pIC50 is the IC50 on a negative log10 scale, so that one unit is a factor of ten. For the compound `CNC(=O)COc1cccc(Nc2nc(NC3C4C=CC(C4)C3C(N)=O)c3nc[nH]c3n2)c1` (racemic) [Compound 104], the negative logarithm of the IC50 (pIC50) against kinase Lyn b is greater than 6.00.

For `NC(=O)C1C2C=CC(C2)C1Nc1nc(Nc2ccc3c(c2)OCC(=O)N3)nc2[nH]cnc12` (racemic) [Compound 107, Racemic-(2-exo,3-exo)-N6-(3-aminocarbonylbicyclo[2.2. 1]hept-5-en-2-yl)-N2-(3,4-dihydro-3-oxo-2H-1,4-benzoxazin-7-yl)-1H-purine-2,6-diamine], the negative-log IC50 (pIC50) on kinase Lyn b was greater than 6.00.

`CCOc1cccc(Nc2nc(NC3C4C=CC(C4)C3C(N)=O)c3nc[nH]c3n2)c1` (racemic) [Compound 131, Racemic-(2-exo,3-exo)-N6-(3-aminocarbonylbicyclo[2.2. 1]hept-5-en-2-yl)-N2-(3-ethoxy)phenyl-1H-purine-2,6-diamine] had a pIC50 against kinase Lyn b greater than 6.00.

`Cc1ccc(Nc2nc(NC3C4C=CC(C4)C3C(N)=O)c3nc[nH]c3n2)cc1F` (racemic) [Compound 134, Racemic-(2-exo,3-exo)-N6-(3-aminocarbonylbicyclo[2.2. 1]hept-5-en-2-yl)-N2-(3-fluoro-4-methy)phenyl-1H-purine-2,6-diamine] had a negative logarithm of the IC50 (pIC50) against kinase Lyn b greater than 6.00.

With `NC(=O)C1C2C=CC(C2)C1Nc1nc(Nc2cccc3[nH]ccc23)nc2[nH]cnc12` (racemic) [Compound 135, Racemic-(2-exo,3-exo)-N6-(3-aminocarbonylbicyclo[2.2. 1]hept-5-en-2-yl)-N2-(1H-indol-4-yl)-1H-purine-2,6-diamine], the negative logarithm of the IC50 (pIC50) in test [1] was less than 5.00; against Lck kinase, greater than 5.30.

In the case of `COc1ccccc1Nc1nc(NC2C3C=CC(C3)C2C(N)=O)c2nc[nH]c2n1` (racemic) [Compound 136, Racemic-(2-exo,3-exo-)-N6-(3-aminocarbonylbicyclo[2.2. 1]hept-5-en-2-yl)-N2-(2-methoxy)phenyl-1H-purine-2,6-diamine], the pIC50 is greater than 5.00 on Lck kinase, less than 5.00 on kinase Lyn b and greater than 5.00 on Syk kinase.

On to `Cc1cccc(Nc2nc(NC3CC4CCC3C4)c3nc[nH]c3n2)c1` (racemic) [Compound 151, Racemic-(2-exo)-N6-(bicyclo[2.2.1]hept-2-yl)-N2-(3-methyl)phenyl-1H-purine-2,6-diamine], for which the pIC50 against Lck kinase was greater than 5.30; on Syk kinase, greater than 5.00.

On to `NC(=O)c1c[nH]c2ccc(Nc3nc(NC4C5C=CC(C5)C4C(N)=O)c4nc[nH]c4n3)cc12` (racemic) [Compound 152, Racemic-(2-exo,3-exo-)-N6-(3-aminocarbonylbicyclo[2.2. 1]hept-5-en-2-yl)-N2-(3-aminocarbonyl-1H-indol-5-yl)-1H-purine-2,6-diamine], for which the pIC50 is less than 5.00 in test [1] and greater than 5.30 against Lck kinase.

As for `CC(C)Oc1cccc(Nc2nc(NC3CC4CCC3C4)c3nc[nH]c3n2)c1` (racemic) [Compound 153, Racemic-(2-exo)-N6-(bicyclo[2.2.1]hept-2-yl)-N2-(3-isopropoxy)phenyl-1H-purine-2,6-diamine], the values for the pIC50 (in test [1]; at Lck kinase; at Syk kinase) were greater than 5.30, greater than 5.30 and greater than 5.00, respectively.

With `COc1cccc(Nc2nc(NC3CC4CCC3C4)c3nc[nH]c3n2)c1` (racemic) [Compound 154, Racemic-(2-exo)-N6-(bicyclo[2.2.1]hept-2-yl)-N2-(3-methoxy)phenyl-1H-purine-2,6-diamine], the pIC50 against kinase Lyn b was greater than 6.00.

In turn, `Cc1cccc(Nc2nc(NC3C4CCC(C4)C3C(N)=O)c3cc[nH]c3n2)c1` (racemic) [Compound 165, Racemic-(2-exo,3-exo)-N4-(3-aminocarbonylbicyclo[2.2. 1]hept-2-yl)-N2-(3-methyl)phenyl-1H-pyrrolo[2,3-d]pyrimidine-2,4-diamine] showed a negative-log IC50 (pIC50) at Lck kinase greater than 5.30.

In the case of `N#Cc1ccc(-c2ccc(Nc3nc(NC4C5C=CC(C5)C4C(N)=O)c4cc[nH]c4n3)cc2)cc1` (racemic) [Compound 220, Racemic-(2-exo,3-exo)-N4-(3-aminocarbonylbicyclo [2.2.1]hept-5-en-2-yl)-N2-[(4′-cyano[1,1′-biphenyl]-4-yl)]-1H-pyrrolo[2,3-d]pyrimidine-2,4-diamine], the pIC50 at Axl kinase was less than 5.00; on PRK1 kinase it was greater than 5.30.

On kinase Lyn b, `NC(=O)[C@@H]1[C@H](Nc2nc(Nc3cccc(F)c3)nc3[nH]cnc23)[C@H]2C=C[C@@H]1C2` [Compound 109, (1R,2R,3S,4S)-N6-(3-Aminocarbonylbicyclo[2.2. 1]hept-5-en-2-yl)-N2-(3-fluoro)phenyl-1H-purine-2,6-diamine] gave a pIC50 greater than 6.00.

On to `NC(=O)[C@@H]1[C@H](Nc2nc(Nc3cccc(OCCN4CCOCC4)c3)nc3[nH]cnc23)[C@H]2C=C[C@@H]1C2` [Compound 112, (1R,2R,3S,4S)-N6-(3-Aminocarbonylbicyclo[2.2. 1]hept-5-en-2-yl)-N2-[3-(2-morpholin-4-yl-ethoxy)phenyl]-1H-purine-2,6-diamine], for which the negative logarithm of the IC50 (pIC50) against kinase Lyn b is greater than 6.00.

For `NC(=O)[C@H]1[C@@H](Nc2nc(Nc3cccc(OCCN4CCOCC4)c3)nc3[nH]cnc23)[C@@H]2C=C[C@H]1C2` [Compound 113, (1S,2S,3R,4R)-N6-(3-Aminocarbonylbicyclo[2.2. 1]hept-5-en-2-yl)-N2-[3-(2-morpholin-4-yl-ethoxy)phenyl]-1H-purine-2,6-diamine], the pIC50 against kinase Lyn b is greater than 6.00.

`NC(=O)[C@@H]1[C@H](Nc2nc(Nc3ccc(Cc4ccncc4)cc3)nc3[nH]cnc23)[C@H]2C=C[C@@H]1C2` [Compound 148, (1R,2R,3S,4S)-N6-(3-Aminocarbonylbicyclo[2.2. 1]hept-5-en-2-yl)-N2-[4-(4-pyridinylmethyl)phenyl]-1H-purine-2,6-diamine]: the negative-log IC50 (pIC50) on kinase Lyn b was greater than 6.00.

On to `Cc1cc(Nc2ncc(F)c(NC3CCCC3C(N)=O)n2)ccc1N1CCN(C)CC1` [cis (1R,2S), N4-(2-aminocarbonylcyclopent-1-yl)-5-fluoro-N2-[4-(4-methylpiperazin-1-yl)-3-methylphenyl]-2,4-pyrimidinediamine], for which the “antiproliferative activity against tumor cell types” value (“antiproliferative activity” below) in the test on tumor cell lines is reported as “inhibit the proliferation”; in the test on tumor cell lines (listed as (1R,2S)) it was “exhibited antiproliferative activity”. Moreover, the “inhibition of Aurora kinases” value in the test with Aurora kinases is “inhibited Aurora kinases”.

Consider `Cc1cc(Nc2ncc(F)c(NC3CCCC3C(N)=O)n2)ccc1N1CCN(C)CC1` [cis (1S,2R), N4-(2-aminocarbonylcyclopent-1-yl)-5-fluoro-N2-[4-(4-methylpiperazin-1-yl)-3-methylphenyl]-2,4-pyrimidinediamine], for which the “antiproliferative activity” value with tumor cell lines is listed as “inhibit the proliferation”; with tumor cell lines (listed as cis(1S,2R)), “exhibited antiproliferative activity”. The “inhibition of Aurora kinases” value in the test with Aurora kinases is given as “inhibited Aurora kinases”.

Consider `Cc1cc(Nc2ncc(F)c(NC3CCCC3C(N)=O)n2)ccc1N1CCN(C)CC1` [trans (1R,2R) diastereomer, N4-(2-aminocarbonylcyclopent-1-yl)-5-fluoro-N2-[4-(4-methylpiperazin-1-yl)-3-methylphenyl]-2,4-pyrimidinediamine], for which the figures for the “antiproliferative activity” value with tumor cell lines and in the test with tumor cell lines (listed as trans(1R,2R)) were “inhibit the proliferation” and “exhibited antiproliferative activity”, respectively. For the same compound, the “inhibition of Aurora kinases” value in the test with Aurora kinases is given as “inhibited Aurora kinases”.

Consider `Cc1cc(Nc2ncc(F)c(NC3CCCC3C(N)=O)n2)ccc1N1CCN(C)CC1` [trans (1S,2S) diastereomer, N4-(2-aminocarbonylcyclopent-1-yl)-5-fluoro-N2-[4-(4-methylpiperazin-1-yl)-3-methylphenyl]-2,4-pyrimidinediamine], for which the “antiproliferative activity” value in the test with tumor cell lines and in the test with tumor cell lines (listed as trans(1S,2S)) was “relatively inactive” in each case.
